These results are taken from paper PMC3743129 (ACS medicinal chemistry letters, 2013).

Series [1] has as its system a number of different viruses. As to conditions: cited from earlier work.
Series [2] is classed as in vitro ADME.
Series [3] is described as follows: in vitro. It counts as in vitro ADME.
Series [4] deals with MeV-Edm. Description: microbe, parasite or virus in culture. It counts as cell-based. As to conditions: Measles morbillivirus, read-out: EC50 against MeV strain Edmonston.

The structures appear in SMILES notation. Marks after values point to notes of the source that are not given here.

Consider `COc1ccc(-n2c(SC(C)C(=O)Nc3ccc(C)cc3Cl)nc3ccccc32)cc1` (stereo not drawn) [Compound 1], for which the “activity against a number of different viruses in cell culture” value in series [1] was “low nanomolar activity”. For the molecule `C#CCn1c([S+](=O)([O-])Cc2ccc(F)cc2)nc(-c2ccccc2)c1-c1ccccc1` [Compound 3], the “S9 stability T1/2 hamster” value in series [2] is reported as less than 2.5 min. Turning to `O=S(=O)(Cc1ccccc1)c1nc(-c2ccccc2)c(-c2ccccc2)[nH]1` [Compound 13a], in series [2], the “S9 stability T1/2 hamster” value is given as less than 2.5 min. In general, half-life refers to how long it takes for the measured level to halve. Read a low half-life as rapid decline. Consider `Cn1c(S(=O)(=O)Cc2ccccc2)nc(-c2ccccc2)c1-c1ccccc1` [Compound 13b], for which the “metabolite peak in LC-MS, % of total area” value in series [3] (human, 20 min, 100 μM) is given as 91%. In series [3] (human, s9), this molecule yielded a half-life of 2 to 12 min. In addition, the “S9 stability T1/2 human” value in series [3] (s9) is reported as 2-12^b min. In addition, in series [2], the “S9 stability T1/2 hamster” value is on record as <2.5^b min. For `Cn1c(S(=O)(=O)Cc2ccc(F)cc2)nc(-c2ccc(F)cc2)c1-c1ccc(F)cc1` [Compound 13c], the “S9 stability T1/2 hamster” value in series [2] is <2.5^b min.

A word on the EC50: it is the concentration that produces a half-maximal response. Take `CN(Cc1nc(-c2ccccc2)c(-c2ccccc2)n1C)c1ccccc1` [Compound 28a]: the EC50 in series [4] was 810 nM.
